In PubChem BioAssay (NCI):
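A five-concentration, 48-hour dose response in 96-well plates underlies each endpoint, interpolated linearly between surrounding concentrations. GI50 marks 50% less growth. At the TGI there is no net growth.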

These compounds were tested on SK-MEL-28 melanoma (assay: DTP human tumour cell line panel, 48 h).
`Cc1cc(C)c2c(n1)sc1c(Nc3ccc(Cl)cc3)ncnc12` gave a GI50 of 4.4 µM and a TGI of over 100 µM. `COc1cc(/C=C/C(=O)c2ccc(O)c(OC)c2)ccc1O` gave a TGI of 36.5 µM. `Cc1ccc(-c2c(C#N)c(-c3ccc(C)cc3)n(NS(=O)(=O)c3ccccc3)c(=O)c2C#N)cc1` gave a TGI of over 100 µM. Work on `C[n+]1c2ccc(Cl)cc2nc2cc(-c3ccccc3)ccc21` yielded a TGI of 43.8 µM. `COc1cc(C2C3C=CC=C4CC=CC(=C43)C3CCC(=O)N32)cc(OC)c1OC` (stereo not given) was tested, and the TGI was over 100 µM.

These compounds were tested on SK-MEL-5 melanoma (assay: DTP human tumour cell line panel, 48 h).
`CC1=C(C(=O)Nc2ccc(F)c(Cl)c2)C(c2ccccc2O)NC(=S)N1` (stereo not given) was tested, and the GI50 was 21.9 µM and the TGI was over 50 µM. For `c1ccc(N=C(N2CCCC2)N(CCN2CCCC2)c2ccccc2)cc1`, the TGI was 24.5 µM. `Cc1cc(C)c2c(n1)sc1c(Nc3ccc(Cl)cc3)ncnc12` was tested, and the GI50 was under 0.0141 µM and the TGI was over 100 µM. `Cc1ccc(-c2c(C#N)c(-c3ccc(C)cc3)n(NS(=O)(=O)c3ccccc3)c(=O)c2C#N)cc1` gave a TGI of 31.2 µM. With `C[n+]1c2ccc(Cl)cc2nc2cc(-c3ccccc3)ccc21` the TGI was 24.3 µM.

Each compound was assayed on SK-OV-3 ovarian (assay: DTP human tumour cell line panel, 48 h).
`CC1=C(C(=O)Nc2ccc(F)c(Cl)c2)C(c2ccccc2O)NC(=S)N1` (stereo not given) was tested, and the GI50 was over 50 µM and the TGI was over 50 µM. Compound `c1ccc(N=C(N2CCCC2)N(CCN2CCCC2)c2ccccc2)cc1` has a TGI of over 100 µM. `Cc1cc(C)c2c(n1)sc1c(Nc3ccc(Cl)cc3)ncnc12` showed a GI50 of 0.0418 µM and a TGI of over 100 µM. With `COc1cc(/C=C/C(=O)c2ccc(O)c(OC)c2)ccc1O` the TGI was 93.4 µM. For `Cc1ccc(-c2c(C#N)c(-c3ccc(C)cc3)n(NS(=O)(=O)c3ccccc3)c(=O)c2C#N)cc1`, the TGI was over 100 µM. Compound `COc1cc(C2C3C=CC=C4CC=CC(=C43)C3CCC(=O)N32)cc(OC)c1OC` (stereo not given) has a TGI of over 100 µM.

These compounds were tested on SN12C renal (assay: DTP human tumour cell line panel, 48 h).
`CC1=C(C(=O)Nc2ccc(F)c(Cl)c2)C(c2ccccc2O)NC(=S)N1` (stereo not given) showed a GI50 of over 50 µM and a TGI of over 50 µM. Work on `c1ccc(N=C(N2CCCC2)N(CCN2CCCC2)c2ccccc2)cc1` yielded a TGI of over 100 µM. `Cc1cc(C)c2c(n1)sc1c(Nc3ccc(Cl)cc3)ncnc12` gave a GI50 of 0.0312 µM and a TGI of over 100 µM. `Cc1ccc(-c2c(C#N)c(-c3ccc(C)cc3)n(NS(=O)(=O)c3ccccc3)c(=O)c2C#N)cc1` was tested, and the TGI was over 100 µM. With `C[n+]1c2ccc(Cl)cc2nc2cc(-c3ccccc3)ccc21` the TGI was 25.1 µM. For `COc1cc(C2C3C=CC=C4CC=CC(=C43)C3CCC(=O)N32)cc(OC)c1OC` (stereo not given), the TGI was over 100 µM.

Each compound was assayed on SNB-19 CNS (assay: DTP human tumour cell line panel, 48 h).
Work on `CC1=C(C(=O)Nc2ccc(F)c(Cl)c2)C(c2ccccc2O)NC(=S)N1` (stereo not given) yielded a GI50 of over 50 µM and a TGI of over 50 µM. In the case of `c1ccc(N=C(N2CCCC2)N(CCN2CCCC2)c2ccccc2)cc1`, the TGI is reported as over 100 µM. `Cc1cc(C)c2c(n1)sc1c(Nc3ccc(Cl)cc3)ncnc12` gave a GI50 of under 0.01 µM and a TGI of over 100 µM. With `Cc1ccc(-c2c(C#N)c(-c3ccc(C)cc3)n(NS(=O)(=O)c3ccccc3)c(=O)c2C#N)cc1` the TGI was over 100 µM. Compound `C[n+]1c2ccc(Cl)cc2nc2cc(-c3ccccc3)ccc21` has a TGI of 9.59 µM. `COc1cc(C2C3C=CC=C4CC=CC(=C43)C3CCC(=O)N32)cc(OC)c1OC` (stereo not given) gave a TGI of over 100 µM.

What follows are compounds tested on SNB-75 CNS (assay: DTP human tumour cell line panel, 48 h).
`c1ccc(N=C(N2CCCC2)N(CCN2CCCC2)c2ccccc2)cc1` showed a TGI of 78 µM. `Cc1cc(C)c2c(n1)sc1c(Nc3ccc(Cl)cc3)ncnc12` showed a GI50 of 0.017 µM and a TGI of over 26.4 µM. `COc1cc(/C=C/C(=O)c2ccc(O)c(OC)c2)ccc1O` showed a TGI of 77.5 µM. In the case of `Cc1ccc(-c2c(C#N)c(-c3ccc(C)cc3)n(NS(=O)(=O)c3ccccc3)c(=O)c2C#N)cc1`, the TGI is reported as over 100 µM. Compound `C[n+]1c2ccc(Cl)cc2nc2cc(-c3ccccc3)ccc21` has a TGI of 80.1 µM. For `COc1cc(C2C3C=CC=C4CC=CC(=C43)C3CCC(=O)N32)cc(OC)c1OC` (stereo not given), the TGI was over 100 µM.

The compounds below were run on SR leukemia (assay: DTP human tumour cell line panel, 48 h).
`CC1=C(C(=O)Nc2ccc(F)c(Cl)c2)C(c2ccccc2O)NC(=S)N1` (stereo not given) was tested, and the GI50 was 34.8 µM and the TGI was over 50 µM. Compound `c1ccc(N=C(N2CCCC2)N(CCN2CCCC2)c2ccccc2)cc1` has a TGI of over 100 µM. Work on `Cc1cc(C)c2c(n1)sc1c(Nc3ccc(Cl)cc3)ncnc12` yielded a GI50 of under 0.01 µM and a TGI of 38.6 µM. `C[n+]1c2ccc(Cl)cc2nc2cc(-c3ccccc3)ccc21` showed a TGI of 9.14 µM. `COc1cc(C2C3C=CC=C4CC=CC(=C43)C3CCC(=O)N32)cc(OC)c1OC` (stereo not given) was tested, and the TGI was over 100 µM.

What follows are compounds tested on SW-620 colon (assay: DTP human tumour cell line panel, 48 h).
`CC1=C(C(=O)Nc2ccc(F)c(Cl)c2)C(c2ccccc2O)NC(=S)N1` (stereo not given) was tested, and the GI50 was over 50 µM and the TGI was over 50 µM. With `c1ccc(N=C(N2CCCC2)N(CCN2CCCC2)c2ccccc2)cc1` the TGI was over 100 µM. Work on `Cc1cc(C)c2c(n1)sc1c(Nc3ccc(Cl)cc3)ncnc12` yielded a GI50 of under 0.01 µM and a TGI of over 100 µM. `Cc1ccc(-c2c(C#N)c(-c3ccc(C)cc3)n(NS(=O)(=O)c3ccccc3)c(=O)c2C#N)cc1` showed a TGI of over 100 µM. In the case of `C[n+]1c2ccc(Cl)cc2nc2cc(-c3ccccc3)ccc21`, the TGI is reported as over 100 µM. In the case of `COc1cc(C2C3C=CC=C4CC=CC(=C43)C3CCC(=O)N32)cc(OC)c1OC` (stereo not given), the TGI is reported as over 100 µM.

What follows are compounds tested on T-47D breast (assay: DTP human tumour cell line panel, 48 h).
Compound `CC1=C(C(=O)Nc2ccc(F)c(Cl)c2)C(c2ccccc2O)NC(=S)N1` (stereo not given) has a GI50 of over 50 µM and a TGI of over 50 µM. `c1ccc(N=C(N2CCCC2)N(CCN2CCCC2)c2ccccc2)cc1` was tested, and the TGI was over 100 µM. `Cc1cc(C)c2c(n1)sc1c(Nc3ccc(Cl)cc3)ncnc12` was tested, and the GI50 was 0.0299 µM and the TGI was over 100 µM. `COc1cc(/C=C/C(=O)c2ccc(O)c(OC)c2)ccc1O` was tested, and the TGI was 58.7 µM. `COc1cc(C2C3C=CC=C4CC=CC(=C43)C3CCC(=O)N32)cc(OC)c1OC` (stereo not given) was tested, and the TGI was over 100 µM.

Each compound was assayed on TK-10 renal (assay: DTP human tumour cell line panel, 48 h).
With `CC1=C(C(=O)Nc2ccc(F)c(Cl)c2)C(c2ccccc2O)NC(=S)N1` (stereo not given) the GI50 was over 50 µM and the TGI was over 50 µM. Compound `c1ccc(N=C(N2CCCC2)N(CCN2CCCC2)c2ccccc2)cc1` has a TGI of over 100 µM. `Cc1cc(C)c2c(n1)sc1c(Nc3ccc(Cl)cc3)ncnc12` was tested, and the GI50 was over 100 µM and the TGI was over 100 µM. `COc1cc(/C=C/C(=O)c2ccc(O)c(OC)c2)ccc1O` gave a TGI of 87.9 µM. In the case of `Cc1ccc(-c2c(C#N)c(-c3ccc(C)cc3)n(NS(=O)(=O)c3ccccc3)c(=O)c2C#N)cc1`, the TGI is reported as over 100 µM. `C[n+]1c2ccc(Cl)cc2nc2cc(-c3ccccc3)ccc21` gave a TGI of 43.2 µM. `COc1cc(C2C3C=CC=C4CC=CC(=C43)C3CCC(=O)N32)cc(OC)c1OC` (stereo not given) gave a TGI of over 100 µM.

The compounds below were run on U251 CNS (assay: DTP human tumour cell line panel, 48 h).
Work on `CC1=C(C(=O)Nc2ccc(F)c(Cl)c2)C(c2ccccc2O)NC(=S)N1` (stereo not given) yielded a GI50 of 30.2 µM and a TGI of over 50 µM. For `c1ccc(N=C(N2CCCC2)N(CCN2CCCC2)c2ccccc2)cc1`, the TGI was over 100 µM. `Cc1cc(C)c2c(n1)sc1c(Nc3ccc(Cl)cc3)ncnc12` gave a GI50 of under 0.01 µM and a TGI of over 100 µM. For `Cc1ccc(-c2c(C#N)c(-c3ccc(C)cc3)n(NS(=O)(=O)c3ccccc3)c(=O)c2C#N)cc1`, the TGI was over 100 µM. `C[n+]1c2ccc(Cl)cc2nc2cc(-c3ccccc3)ccc21` gave a TGI of over 100 µM. `COc1cc(C2C3C=CC=C4CC=CC(=C43)C3CCC(=O)N32)cc(OC)c1OC` (stereo not given) showed a TGI of over 100 µM.

The compounds below were run on UACC-257 melanoma (assay: DTP human tumour cell line panel, 48 h).
`CC1=C(C(=O)Nc2ccc(F)c(Cl)c2)C(c2ccccc2O)NC(=S)N1` (stereo not given) was tested, and the GI50 was 19.8 µM and the TGI was over 50 µM. `c1ccc(N=C(N2CCCC2)N(CCN2CCCC2)c2ccccc2)cc1` gave a TGI of 67.6 µM. Work on `Cc1cc(C)c2c(n1)sc1c(Nc3ccc(Cl)cc3)ncnc12` yielded a GI50 of 0.107 µM and a TGI of over 100 µM. `COc1cc(/C=C/C(=O)c2ccc(O)c(OC)c2)ccc1O` gave a TGI of 45.9 µM. `Cc1ccc(-c2c(C#N)c(-c3ccc(C)cc3)n(NS(=O)(=O)c3ccccc3)c(=O)c2C#N)cc1` showed a TGI of over 100 µM. Compound `C[n+]1c2ccc(Cl)cc2nc2cc(-c3ccccc3)ccc21` has a TGI of 32.9 µM. `COc1cc(C2C3C=CC=C4CC=CC(=C43)C3CCC(=O)N32)cc(OC)c1OC` (stereo not given) showed a TGI of over 100 µM.

These compounds were tested on UACC-62 melanoma (assay: DTP human tumour cell line panel, 48 h).
In the case of `CC1=C(C(=O)Nc2ccc(F)c(Cl)c2)C(c2ccccc2O)NC(=S)N1` (stereo not given), the GI50 is reported as over 50 µM and the TGI is reported as over 50 µM. With `c1ccc(N=C(N2CCCC2)N(CCN2CCCC2)c2ccccc2)cc1` the TGI was over 100 µM. Work on `Cc1cc(C)c2c(n1)sc1c(Nc3ccc(Cl)cc3)ncnc12` yielded a GI50 of under 0.01 µM. In the case of `Cc1ccc(-c2c(C#N)c(-c3ccc(C)cc3)n(NS(=O)(=O)c3ccccc3)c(=O)c2C#N)cc1`, the TGI is reported as over 100 µM. With `C[n+]1c2ccc(Cl)cc2nc2cc(-c3ccccc3)ccc21` the TGI was 43.8 µM. Work on `COc1cc(C2C3C=CC=C4CC=CC(=C43)C3CCC(=O)N32)cc(OC)c1OC` (stereo not given) yielded a TGI of over 100 µM.

These compounds were tested on UO-31 renal (assay: DTP human tumour cell line panel, 48 h).
For `CC1=C(C(=O)Nc2ccc(F)c(Cl)c2)C(c2ccccc2O)NC(=S)N1` (stereo not given), the GI50 was over 50 µM and the TGI was over 50 µM. With `c1ccc(N=C(N2CCCC2)N(CCN2CCCC2)c2ccccc2)cc1` the TGI was over 100 µM. `Cc1cc(C)c2c(n1)sc1c(Nc3ccc(Cl)cc3)ncnc12` was tested, and the GI50 was under 0.01 µM. For `C[n+]1c2ccc(Cl)cc2nc2cc(-c3ccccc3)ccc21`, the TGI was 48.7 µM. For `COc1cc(C2C3C=CC=C4CC=CC(=C43)C3CCC(=O)N32)cc(OC)c1OC` (stereo not given), the TGI was over 100 µM.
